According to patent US6515025B2, “Use of ethynyl alanine amino diol compounds to inhibit enzymatic conversion of angiotensinogen to angiotensin I” (Pharmacia Corporation, priority 1991, dated 2003):
“And” between values parts separate entries of the source, which are not always exact repeats. Equal values may be shown once. Read-outs that look alike come from different tables or passages of the source.

Columns and labels:
human renin = molecular target: T1, human renin (Homo sapiens, UniProt P00797); test: Human renin inhibition in vitro; type: biochemical
T1 construct: purchased National Institute for Biological Standards, London
T1 sequence (P00797 67-406): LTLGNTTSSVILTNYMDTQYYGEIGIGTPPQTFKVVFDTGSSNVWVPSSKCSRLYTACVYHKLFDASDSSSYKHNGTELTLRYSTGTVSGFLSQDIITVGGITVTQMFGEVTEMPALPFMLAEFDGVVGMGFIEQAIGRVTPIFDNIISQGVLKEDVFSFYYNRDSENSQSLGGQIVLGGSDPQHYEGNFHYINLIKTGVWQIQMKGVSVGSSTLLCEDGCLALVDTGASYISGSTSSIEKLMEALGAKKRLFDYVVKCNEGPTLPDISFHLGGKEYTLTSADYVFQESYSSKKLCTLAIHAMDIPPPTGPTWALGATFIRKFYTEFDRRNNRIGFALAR
Protocol: Compounds of Formula I were evaluated as inhibitors of human renin in an in vitro assay, as follows: This human renin inhibition test has been previously described in detail [Papaioannou et al., Clinical and Experimental Hypertension, A7(9), 1243-1257 (1985)]. Human renin was obtained from the National Institute for Biological Standards, London. An incubation mixture was prepared containing the following components: in a total volume of 0.25 mL: 100 mM Tris-acetate buffer at pH 7.4, 25×10^−6 Goldblatt units of renin, 0.05 mL of plasma from human volunteers taking oral contraceptives, 6.0 mM Na-EDTA, 2.4 mM phenylmethyl sulfonyl fluoride, 1.5 mM 8-hydroxyquinoline, 0.4 mg/mL bovine serum albumin (BSA), and 0.024 mg/mL neomycin sulfate. This mixture was incubated for two hours at 37° C. in the presence or absence of renin inhibitors. The produced angiotensin I was determined by radioimmunoassay (New England Nuclear kit). Test compounds to be assayed were dissolved in DMSO and diluted with 100 mM Tris-acetate buffer at pH 7.4 containing 0.5% BSA to the appropriate concentration. The final concentration of organic solvent in the reaction mixture was less than 1%. Control incubations at 37° C. were used to correct for effects of organic solvent on renin activity.

[1] = tested on: Plasma Renin Activity (PRA); test: Marmoset plasma renin activity (PRA) reduction on oral administration; type: in vivo, Marmoset monkeys (Callithrix jacchus); conditions: IG; for inhibition at 0.1 mg/kg / inhibition at 1 mg/kg: Primates, po
Protocol: The oral activity of renin inhibitor compounds was determined in vivo in Marmoset monkeys using the following procedure. Common Marmoset monkeys (Callithrix jacchus, Charles River, both sexes, body weight 300-400 g) were placed on a modified high-protein low-sodium diet (Purina, St. Louis, Mo.) for 1 week. About 24 hours prior to the administration of test compound, Lasix (5 mg/kg, im) was given. On the day of the test, the animal was anesthetized with isoflurane, body weight recorded, and a baseline blood sample taken. Then, test compound was given intragastrically and blood samples were taken in K-EDTA for plasma renin activity at appropriate time intervals. The PRA was determined by using the protocol outlined below. Results are expressed in terms of PRA at various time intervals both before and after compound administrations (“Pre” means pretreatment levels before compound administrations). Also included is percent inhibition (% INH from pretreatment levels).
I. Angiotensin I Generation
25 ml of the above reaction mixtures, in duplicate, were incubated at 37° C. or 0° C. for 2 hours.
II. Determination of Angiotensin I Concentrations
Angiotensin I (AI) concentrations were determined by radioimmunoassays with a commercial kit from NEN Co.
III. Calculation of Plasma Renin Activity
PRA (ng AI/ml/hr)=(AI at 37°−AI at 0°)/2 hr.

[2] = 0.1 MPK, 60 min, individual monkeys
[3] = 0.1 MPK, 60 min from dosing, individual monkeys
[4] = 0.1 MPK, 120 min, individual monkeys
[5] = 0.1 MPK, 120 min from dosing, individual monkeys
[6] = 0.1 MPK, 240 min, individual monkeys
[7] = 0.1 MPK, 240 min from dosing, individual monkeys
[8] = 0.1 MPK, Pre (pretreatment level), individual monkeys
[9] = 0.1 MPK, 60 min, individual monkeys, read-out: % INH (from pretreatment PRA)
[10] = 0.1 MPK, 240 min, individual monkeys, read-out: % INH (from pretreatment PRA)
[11] = 1 h, 0.1 MPK, 60 min, mean of monkeys A-C, read-out: MEAN % INH
[12] = 2 h, 0.1 MPK, 120 min, mean of monkeys A-C, read-out: MEAN % INH
[13] = 4 h, 0.1 MPK, 240 min, mean of monkeys A-C, read-out: MEAN % INH

SMILES: C#CC[C@H](NC(=O)C(Cc1ccccc1)OC(=O)N(C)CCN(C)C)C(=O)NC(CC1CCCCC1)[C@@H](O)C(O)CC(C)C (relative stereo) [Example 2, [1R*-[[[1R*-[[[1S,1R*-(Cyclohexylmethyl)-2S*,3R*-dihydroxy-5-methylhexyl]amino]carbonyl]-3-butynyl]amino]carbonyl]-2-phenylethyl)[2-(dimethylamino)ethyl]methylcarbamate]
- IC50 (human renin): 4 nM
- % INH (from pretreatment PRA) [1, 2]: 71.5% and 81.2%
- PRA [1, 3]: 3.9 ngAI/ml/hr and 33.9 ngAI/ml/hr and 12.7 ngAI/ml/hr
- % INH (from pretreatment PRA) [1, 4]: 86.4% and 64.8% and 78.7%
- PRA [1, 5]: 5.7 ngAI/ml/hr and 41.8 ngAI/ml/hr and 14.4 ngAI/ml/hr
- % INH (from pretreatment PRA) [1, 6]: 57.2% and 58.2%
- PRA [1, 7]: 28.5 ngAI/ml/hr and 18.1 ngAI/ml/hr and 49.7 ngAI/ml/hr
- PRA [1, 8]: 42.2 ngAI/ml/hr and 118.8 ngAI/ml/hr and 67.5 ngAI/ml/hr
- inhibition at 0.1 mg/kg [1, 9]: 90.7%
- inhibition at 0.1 mg/kg [1, 10]: 57.7%
- inhibition at 0.1 mg/kg [1, 11]: 81.1 ± 6%
- inhibition at 0.1 mg/kg [1, 12]: 76.6 ± 6%
- inhibition at 0.1 mg/kg [1, 13]: 57.7%

SMILES: C#CC[C@H](NC(=O)[C@@H](CC(=O)N(C)CCN(CC)CC)Cc1ccccc1)C(=O)N[C@@H](CC1CCCCC1)[C@@H](O)[C@@H](O)CC(C)C [Example 4]
- IC50 (human renin): 1 nM

SMILES: C#CCC(NC(=O)C(Cc1ccccc1)OC(=O)N(C)CCN(C)C)C(=O)NC(CC1CCCCC1)[C@@H](O)C(O)CC(C)C (stereo in doubt) [Example 3, [1R*-[[[1-[[[1S,1R*-(Cyclohexylmethyl)-2S*,3R*-dihydroxy-5-methylhexyl]amino]carbonyl]-3-butynyl]amino]carbonyl]-2-phenylethyl[]2-(dimethylamino)ethyl]methylcarbamate]
- IC50 (human renin): 3 nM
- % INH (from pretreatment PRA) [1, 2]: 60.7% and 66.7%
- PRA [1, 3]: 42.1 ngAI/ml/hr and 29.8 ngAI/ml/hr and 27.8 ngAI/ml/hr
- % INH (from pretreatment PRA) [1, 4]: 46.9% and 60.3%
- PRA [1, 5]: 47.1 ngAI/ml/hr and 40.3 ngAI/ml/hr and 33.2 ngAI/ml/hr
- % INH (from pretreatment PRA) [1, 6]: 63.9% and 48%
- PRA [1, 7]: 36.1 ngAI/ml/hr and 38.1 ngAI/ml/hr and 39.5 ngAI/ml/hr
- PRA [1, 8]: 105.5 ngAI/ml/hr and 76 ngAI/ml/hr and 83.7 ngAI/ml/hr
- PRA ([1]; 1.0 MPK, 60 min from dosing, individual monkeys): 0 ngAI/ml/hr
- PRA ([1]; 1.0 MPK, 120 min from dosing, individual monkeys): 0 ngAI/ml/hr
- PRA ([1]; 1.0 MPK, 240 min from dosing, individual monkeys): 0 ngAI/ml/hr
- PRA ([1]; 1.0 MPK, Pre (pretreatment level), individual monkeys): 70.5 ngAI/ml/hr and 185.4 ngAI/ml/hr and 76.1 ngAI/ml/hr
- inhibition at 0.1 mg/kg [1, 9]: 60.1%
- inhibition at 0.1 mg/kg ([1]; 0.1 MPK, 120 min, individual monkeys, read-out: % INH (from pretreatment PRA)): 55.3%
- inhibition at 0.1 mg/kg [1, 10]: 56.8%
- inhibition at 1 mg/kg ([1]; 1.0 MPK, 60 min, individual monkeys, read-out: % INH (from pretreatment PRA)): 100%
- inhibition at 1 mg/kg ([1]; 1.0 MPK, 120 min, individual monkeys, read-out: % INH (from pretreatment PRA)): 100%
- inhibition at 1 mg/kg ([1]; 1.0 MPK, 240 min, individual monkeys, read-out: % INH (from pretreatment PRA)): 100%
- inhibition at 1 mg/kg ([1]; 1.0 MPK, printed on the Pre line, read-out: % INH): 100%
- inhibition at 0.1 mg/kg [1, 11]: 62.5 ± 2%
- inhibition at 1 mg/kg ([1]; 1 h, 1.0 MPK, 60 min, mean of monkeys, read-out: MEAN % INH): 100%
- inhibition at 0.1 mg/kg [1, 12]: 54.2 ± 4%
- inhibition at 1 mg/kg ([1]; 2 h, 1.0 MPK, 120 min, mean of monkeys, read-out: MEAN % INH): 100%
- inhibition at 0.1 mg/kg [1, 13]: 56.2 ± 5%
- inhibition at 1 mg/kg ([1]; 4 h, 1.0 MPK, 240 min, mean of monkeys, read-out: MEAN % INH): 100%
